What was measured:
[1] = system: human CCK-2 receptor transfected A431 cells; test: Biodistribution of 177Lu-labelled mini-gastrin analogues in tumour-bearing CD1 nu/nu mice; assay type: in vivo; details: 4 hours after injection
Description: PP-F11N has been investigated according to the CD1 nu/nu mice model. […] FIG. 2 illustrates the biodistribution of PP-F11, PP-F11N and oxidized PP-F11 ox (oxidized PP-F11) after 4 hours in the athymic CD1 nu/nu mice model. Tumour positive: with human CCK-2 receptor transfected A431 cells on one side of the mouse; tumor negative: CCK-2 receptor negative A431 cells on the other side of the mouse. The effect of the higher tumor uptake by the exchange of methionine with norleucine is specifically apparent with compounds having the DGlu6 sequence, different from compounds having a sequence with DGLn6 which is referred to as PP-F10.
CD1 nu/nu mice were injected with 5×10^6 A431 cells. CCK-2 receptor positive A431 cells' were injected into one flank and mock cells on the other as an unspecific control. The tumors reach a weight of about 80 to 120 mg after about 10 days. 150-200 kBq (5 pmol) of the radiolabelled peptides were injected into the tail vein. Mice were killed by CO2 asphyxiation after defined time points post injection. The organs were dissected, weighted and the activity was measured. The % injected activity per gram (% i.A./g) was calculated. The animal experiments were approved by the local animal welfare committee and performed according to national regulations.

[2] = Stability of 177Lu-labelled mini-gastrin analogues in human serum, metabolites by HPLC; assay type: in vitro ADME; details: compared to PP-F11, PP-F10N and PP-F10
Description: 12 MBq of the radiolabelled compound was incubated in 2 mL fresh human plasma. A 40 μL probe was taken after 0, 1, 2, 18, 24, 48 and 72 h and added 200 μL (50% Methanol and 50% Acetonitril) in a Mini-UniPrep Filter. The solution is filtered after vortexing. 40 μL of the filtered solution is analyzed by HPLC.

With `CCCC[C@H](NC(=O)[C@H](Cc1c[nH]c2ccccc12)NC(=O)CNC(=O)[C@H](Cc1ccc(O)cc1)NC(=O)[C@H](C)NC(=O)[C@@H](CCC(=O)O)NC(=O)[C@@H](CCC(=O)O)NC(=O)[C@@H](CCC(=O)O)NC(=O)[C@@H](CCC(=O)O)NC(=O)[C@@H](CCC(=O)O)NC(=O)[C@@H](CCC(=O)O)NC(=O)CN1CCN(CC(=O)O)CCN(CC(=O)O)CCN(CC(=O)O)CC1)C(=O)N[C@@H](CC(=O)O)C(=O)N[C@@H](Cc1ccccc1)C(N)=O` [PP-F11N] the “accumulation in the kidneys” value [1] was “very few accumulation in the kidneys” and the pharmacologic stability [2] was “highest pharmacologic stability of all probands”.

From patent US10130724B2, “Mini-gastrin analogue, in particular for use in CCK2 receptor positive tumour diagnosis and/or treatment” (PAUL SCHERRER INSTITUT, priority 2013, dated 2018)
